Data on ten compounds can be found in article PMC6591251, “Discovery of potent necroptosis inhibitors targeting RIPK1 kinase activity for the treatment of inflammatory disorder and cancer metastasis” (Cell Death & Disease, 2019).

In one data set the test system is mouse and rat. More on the design: method as in PMID 27551444, PMID 28151659. As to conditions: cited from earlier work.
The subject of a further data set is human cells. More on the design: method as in PMID 27551444, PMID 28151659. The conditions noted are these: cited from earlier work.
The subject of data set [1] is B16-F10 or RFP-LL/2 cells. The experiment in a line: Proliferation rate and invasion ability without endothelial monolayer. Type of data set: cell-based, mouse. The conditions noted are these: B16-F10 or RFP-LL/2, in vitro. The protocol: Studies have shown that RIPK1 kinase activity is involved in the promotion of tumor metastasis through death receptor 6-dependent necroptosis of endothelial cells[22] or VEGF-dependent activation of vascular permeability. We thus evaluated the therapeutic effect of PK68 on lung metastasis of mouse melanoma B16-F10 cells in vivo. […] After 2 weeks, the metastasis of B16-F10 cells was measured by histological analysis and assessed as the number of metastasis nodules in the lung. […] Two weeks after intravenous injection of RFP-LL/2 cells, RFP^+ LL/2 cells were isolated from the tumor tissues by flow cytometer sorting and no signal of phosphorylated RIPK1 was detected in these tumors cells (Supplementary Fig. 22). Six hours after intravenous injection of RFP-LL/2 cells into C57BL/6 mice, the RFP-LL/2 cells have extravasated through blood vessels into the lung (Supplementary Fig. 23). […] Further, we evaluated the effect of PK68 on the tumor cell transmigration across the cultured endothelium. We isolated CD31^+ endothelial cells from the lungs and performed the transendothelial migration assay as previously reported. […]
(A-B) B16-F10 and RFP-LL/2 cells were pretreated with indicated compounds for 1h and then cell viability was measured by cell Titer-Glo. (C) B16-F10 and RFP-LL/2 cells were pre-treated with indicated compounds and invasion ability was measured by the transwell assay.

The next data set deals with HT-29 cells. The experiment in a line: TNF-induced necroptosis (TNFα/Smac mimetic/z-VAD), cell viability by ATP levels. As to conditions: Homo sapiens, HT-29, 48 h, T/S/Z 48 h, read-out: EC50(nM) HT-29. The class given is cell-based, human. The procedure:
(§1) Necroptosis is tightly regulated by RIP kinases including RIPK1 and RIPK3. To develop new necroptosis inhibitors, we screened a small-molecule library of around 240 potential kinase inhibitors that were designed with novel structures to affect the ATP-binding pocket of protein kinases. Human colon cancer HT-29 cells were treated with these compounds for […], followed by treatment with necroptotic stimuli (TNFα, Smac mimetic, and z-VAD) that are known to activate TNF-mediated necroptosis. After 48 h, cell viability was analyzed by monitoring ATP levels.
(§2) Fig. 1 PK6 efficiently blocks TNF-α induced necroptosis in both human and mouse cells. a HT-29 cells cultured in 96-well plates were pretreated with the indicated compounds (10 μM) from a library consisting of ~240 compounds that we designed with novel structures for 1 h and subsequently treated with 40 ng/ml TNF-α (T), 100 nM Smac mimetic (S), and the caspase inhibitor 20 μM z-VAD(Z) for 48 h. Cell viability was assessed by measuring ATP levels. Data are represented as the mean ± standard deviation of duplicates. b Chemical structure of PK6. c Dose response curve and EC50 ± SD value for PK6 in TNF-α induced necroptosis in HT-29 cells. Cells were pretreated with indicated concentrations of PK6 for 1 h prior to the treatment with T (40 ng/ml), S (100 nM), and Z (20 μM) for 48 h. Cell viability was assessed by measuring ATP levels. d U937 cells were pretreated with indicated concentrations of PK6 for 1 h followed by the treatment with T (40 ng/ml), S (100 nM), and Z (20 μM) for 24 h. e MEF cells were pretreated with indicated concentrations of PK6 for 1 h followed by the treatment with T (40 ng/ml), S (100 nM), and Z (20 μM) for 24 h. f L929 cells were pretreated with indicated concentrations of PK6 for 1 h prior to the treatment with S (100 nM) and Z (20 μM) for 24 h.
(§3) Fig. 2 Chemical optimization of PK6 leads to improvements in anti-necroptotic activity. a, b The effects of the indicated compounds on cell viability were examined in HT-29 cells (a) and L929 cells (b). HT-29 cells were treated as indicate for 48 h and L929 cells for 24 h. Cell viability was assessed by measuring ATP levels. Data are represented as the mean ± standard deviation of triplicates. c Structure and EC50 ± SD value of each compound are shown in the table. EC50 values are the average of at least two independent determinations. d Lead optimization of PK6 TEXT PRINTED IN THE PICTURE: (c) PK6: EC50(nM) HT-29: 1200±53; EC50(nM) L929: 760±26 | (c) PK67: EC50(nM) HT-29: 250±6.3; EC50(nM) L929: 130±6.8 | (c) PK81: EC50(nM) HT-29: 120±7.6; EC50(nM) L929: 20±0.98 | (c) PK84: EC50(nM) HT-29: 97±6.7; EC50(nM) L929: 45±2.1 | (c) PK93: EC50(nM) HT-29: 130±36; EC50(nM) L929: 30±7.4 | (c) PK86: EC50(nM) HT-29: 73±3.9; EC50(nM) L929: 15±1.0 | (c) PK68: EC50(nM) HT-29: 23±1.4; EC50(nM) L929: 13±0.85
(§4) The cell viability was analyzed by using the CellTiter-Glo Luminescent Cell Viability Assay kit following the manufacturer’s instructions (Promega). Luminescence was measured with SpectraMax i3x (Molecular Devices).

In a further data set the test system is L929 cells. The experiment in a line: TNF-induced necroptosis, cell viability by ATP levels. Type of data set: cell-based. As to conditions: Mus musculus, L929, 24 h, read-out: EC50(nM) L929. The procedure: as §1, §2, §3, §4
A further data set relates to NIH3T3-RIPK3 cells. The experiment in a line: RIPK3 dimerization-induced necroptosis (AP20187). As to conditions: AP20187 100 nM, 24 h. Type of data set: cell-based, mouse. The procedure:
(§5) Recombinant proteins were incubated with PK6 and PK68 as indicated. […] NIH3T3-RIPK3 cells were pretreated with indicated compounds for 1 h and subsequently treated with T (40 ng/ml)/S (100 nM)/Z (20 μM) or AP20187 (100 nM) for 24 h. Cell viability was determined by measuring ATP levels. e PK6 and PK68 have no effect on MLKL dimerization-induced cell death in HeLa-MLKL (1–190) cells that stably express MLKL (1–190aa) fused to DmrB. HeLa-MLKL (1–190) cells were pretreated with indicated compounds for 1 h and subsequently treated with AP20187 (100 nM) for 24 h. Cell viability was determined by measuring ATP levels.
(§6) Further, we evaluated the selectivity of PK68 against a panel of 369 kinases provided by Reaction Biology (at 1000 nM). […] In addition, we followed on some of the active “hits” from the kinome scan. PK68 was tested against TNIK and TRKA by a reputable CRO company. […] RIPK1 is known to mediate NF-κB activation independently of its kinase activity. […] It has been shown that homodimerization of RIPK3 or MLKL induced by the dimerizer leads to necroptosis bypassing the upstream signals[10],[37]. […] This dimerized RIPK3-induced necroptosis was blocked by RIPK3 inhibitor GSK873 but was not blocked by the RIPK1 inhibitor necrostatin-1. […] (Fig. 4e).
as §4

Another data set has as its system HeLa-MLKL (1–190) cells. The experiment in a line: MLKL dimerization-induced cell death (AP20187). As to conditions: AP20187 100 nM, 24 h. The class given is cell-based, human. The procedure:
as §5, §6, §4

Structures are written as SMILES.

With `CC(C)(C)C(=O)N1N=CC[C@H]1c1ccccc1` [GSK963], in the data set with mouse and rat, the “cellular efficacy in mouse and rat” value is “highly reduced cellular efficacy”. In addition, the “potency in human cells” value with human cells is “extremely potent”.

`CN1C(=O)[C@@H](NC(=O)c2n[nH]c(Cc3ccccc3)n2)COc2ccccc21` [GSK2982772]: in the data set on mouse and rat, the “cellular efficacy in mouse and rat” value is recorded as “highly reduced cellular efficacy”. In the data set with human cells, the “potency in human cells” value is “extremely potent”.

Consider `CN1C(=O)NC(Cc2c[nH]c3c(Cl)cccc23)C1=O` (stereo not drawn) [Nec-1s, 7-Cl-O-Nec-1, reference compound], for which the “proliferation rate and invasion ability” value in data set [1] is on record as “no obvious influence”.

`CC(=O)Nc1nc2ccc(-c3cnc(C)c(NC(=O)CC4CCCCC4)c3)cc2s1` [PK67, N-(5-(2-acetamidobenzo[d]thiazol-6-yl)-2-methylpyridin-3-yl)-2-cyclohexylacetamide]: the figures for the EC50 with HT-29 cells and in the data set with L929 cells were 250 nM and 130 nM, respectively.

`CC(=O)Nc1nc2ccc(-c3cnc(C)c(NC(=O)OC4CCCC4)c3)cc2s1` [PK81, cyclopentyl (5-(2-acetamidobenzo[d]thiazol-6-yl)-2-methylpyridin-3-yl)carbamate]: the melting point was 246 to 247 °C (dec.). Moreover, in the data set with HT-29 cells, the EC50 stood at 120 ± 7.6 nM. For the same compound, the EC50 in the data set on L929 cells was found to be 20 ± 0.98 nM.

As for `CC(=O)Nc1cn2cc(-c3cnc(C)c(NC(=O)OC4CCCCC4)c3)ccc2n1` [PK84, cyclohexyl (5-(2-acetamidoimidazo[1,2-a]pyridin-6-yl)-2-methylpyridin-3-yl)carbamate], the melting point was 268 to 269 °C (dec.). For the same compound, in the data set with HT-29 cells, the EC50 is 97 ± 6.7 nM. In addition, in the data set on L929 cells, the EC50 was 45 ± 2.1 nM.

Turning to `CC(=O)Nc1nc2ccc(-c3cc(NC(=O)OC4CCCCC4)c(C)cn3)cc2s1` [PK86, cyclohexyl (2-(2-acetamidobenzo[d]thiazol-6-yl)-5-methylpyridin-4-yl)carbamate], the melting point is 227 to 228 °C. In addition, in the data set with HT-29 cells, the EC50 turned out to be 73 ± 3.9 nM. Besides, the EC50 in the data set with L929 cells was 15 ± 1 nM.

On to `CC(=O)Nc1nc2ccc(-c3cnc(C)c(NC(=O)OC4CCCCC4)c3)nc2s1` [PK93, cyclohexyl (5-(2-acetamidothiazolo[5,4-b]pyridin-5-yl)-2-methylpyridin-3-yl)carbamate], for which the melting point was 230 to 231 °C (dec.). Also, in the data set on HT-29 cells, the EC50 stood at 130 ± 36 nM. In addition, in the data set on L929 cells, the EC50 was found to be 30 ± 7.4 nM.

Turning to `CN1C(=O)C(Cc2c[nH]c3ccccc23)NC1=S` (stereo not drawn) [necrostatin-1, Necrostatin-1, reference compound], the RIPK3 dimerization-induced necroptosis entry in the data set with NIH3T3-RIPK3 cells is given as “not blocked”.

On to `COc1nccnc1NS(=O)(=O)c1ccc(NC(=O)/C=C/c2ccc([N+](=O)[O-])s2)cc1` [necrosulfonamide, reference compound], for which the “polymerized MLKL-induced necroptosis” value in the data set on HeLa-MLKL (1–190) cells is recorded as “effectively suppressed”.
